{
  "source": "EPA's ToxRefDB 2",
  "key": {"[1]": {"system": "mouse", "conditions": "Subchronic oral toxicity in rodents, b6c3f1, Gavage/Intubation, dose end: 13 week, group: systemic"}, "[2]": {"system": "rat", "conditions": "Subchronic oral toxicity in rodents, fischer, Gavage/Intubation, dose end: 13 week, group: systemic"}, "[3]": {"system": "rat", "conditions": "Carcinogenicity; fischer; Oral; Water; dose end: 104 week; group: systemic; systemic / in life observation / body weight / body weight"}, "[4]": {"system": "rat", "conditions": "Carcinogenicity, fischer, Oral, Water, dose end: 105 week, group: systemic"}, "[5]": {"system": "rat", "conditions": "Chronic toxicity; fischer; Oral; Feed; dose end: 115 week; group: systemic; systemic / hematology / erythrocyte (rbc) count differential / erythrocyte (rbc) + systemic / hematology / hematocrit (hct) / hematocrit (…"}, "[6]": {"system": "rat", "conditions": "Developmental neurotoxicity study; sprague dawley; Oral; Feed; dose end: 90 PND; group: cannot be grouped; reproductive / offspring survival early / dead fetuses / dead fetuses + systemic / in life observation / body weight / offspring (pup) …"}, "[7]": {"system": "mouse", "conditions": "Carcinogenicity, b6c3f1, Oral, Water, dose end: 105 week, group: systemic"}, "[8]": {"system": "mouse", "conditions": "Subchronic oral toxicity in rodents, b6c3f1, Water, dose end: 14 week"}, "[9]": {"system": "rat", "conditions": "Subchronic oral toxicity in rodents, fischer, Water, dose end: 6 week, group: systemic"}, "[10]": {"system": "rat", "conditions": "Subchronic oral toxicity in rodents, fischer, Water, dose end: 14 week, group: systemic"}, "[11]": {"conditions": "systemic / hematology / anemia / anemia - normocytic + systemic / hematology / erythrocyte (rbc) count differential / erythrocyte (rbc) + …"}, "[12]": {"conditions": "systemic / hematology / methemoglobin / methemoglobin"}, "[13]": {"conditions": "systemic / hematology / anemia / anemia - macrocytic + systemic / hematology / erythrocyte (rbc) count differential / erythrocyte (rbc) + …"}, "[14]": {"conditions": "systemic / in life observation / body weight / body weight + systemic / pathology microscopic / stomach / hyperplasia"}, "[15]": {"conditions": "systemic / in life observation / water consumption / water consumption"}, "[16]": {"conditions": "group: maternal, reproductive / reproductive performance / estrous cycle / length"}, "[17]": {"conditions": "group: systemic, systemic / in life observation / body weight / body weight + systemic / in life observation / body weight / body weight gain + systemic / …"}, "[18]": {"conditions": "systemic / hematology / methemoglobin / methemoglobin + systemic / in life observation / body weight / body weight gain + systemic / in life…"}, "[19]": {"conditions": "systemic / hematology / methemoglobin / methemoglobin + systemic / clinical chemistry / urea nitrogen / urea nitrogen"}},
  "data": [
    {"compound": "Nc1ccccc1Cl", "note": "[2-Chloroaniline]", "values": [
      {"measurement": "LOAEL", "setting": "[1]; [11]", "result": 80, "unit": "mg/kg/day"},
      {"measurement": "NOAEL", "setting": "[1]; [11]", "result": 40, "unit": "mg/kg/day"},
      {"measurement": "LEL", "setting": "[1]; [12]", "result": 10, "unit": "mg/kg/day"},
      {"measurement": "NEL", "setting": "[1]; [12]", "result": "< 10", "unit": "mg/kg/day"},
      {"measurement": "LOAEL", "setting": "[2]; [13]", "result": 80, "unit": "mg/kg/day"},
      {"measurement": "NOAEL", "setting": "[2]; [13]", "result": 40, "unit": "mg/kg/day"},
      {"measurement": "LEL", "setting": "[2]; [12]", "result": 10, "unit": "mg/kg/day"},
      {"measurement": "NEL", "setting": "[2]; [12]", "result": "< 10", "unit": "mg/kg/day"}
    ]},
    {"compound": "O=N[O-].[Na+]", "note": "[Sodium nitrite]", "values": [
      {"measurement": "LEL", "setting": "[3]", "result": 125, "unit": "mg/kg/day"},
      {"measurement": "LOAEL", "setting": "[3]", "result": "> 125", "unit": "mg/kg/day"},
      {"measurement": "NEL", "setting": "[3]", "result": 62.5, "unit": "mg/kg/day"},
      {"measurement": "NOAEL", "setting": "[3]", "result": "≥ 125", "unit": "mg/kg/day"},
      {"measurement": "LOAEL", "setting": "[4]; [14]", "result": 130, "unit": "mg/kg/day"},
      {"measurement": "NOAEL", "setting": "[4]; systemic / in life observation / body weight / body weight + systemic / pathology microscopic / stomach / hyperplasia + systemic / in life …", "result": 70, "unit": "mg/kg/day"},
      {"measurement": "LEL", "setting": "[4]; [15]", "result": 35, "unit": "mg/kg/day"},
      {"measurement": "NEL", "setting": "[4]; [15]", "result": "< 35", "unit": "mg/kg/day"},
      {"measurement": "LEL", "setting": "[5]", "result": 100, "unit": "mg/kg/day"},
      {"measurement": "LOAEL", "setting": "[5]", "result": "> 250", "unit": "mg/kg/day"},
      {"measurement": "NEL", "setting": "[5]", "result": "< 100", "unit": "mg/kg/day"},
      {"measurement": "NOAEL", "setting": "[5]", "result": "≥ 250", "unit": "mg/kg/day"},
      {"measurement": "LEL", "setting": "[6]", "result": 12.5, "unit": "mg/kg/day"},
      {"measurement": "LOAEL", "setting": "[6]", "result": "> 25", "unit": "mg/kg/day"},
      {"measurement": "NEL", "setting": "[6]", "result": 6.25, "unit": "mg/kg/day"},
      {"measurement": "NOAEL", "setting": "[6]", "result": "≥ 25", "unit": "mg/kg/day"},
      {"measurement": "LOAEL", "setting": "[7]; [14]", "result": 165, "unit": "mg/kg/day"},
      {"measurement": "NOAEL", "setting": "[7]; systemic / in life observation / body weight / body weight + systemic / pathology microscopic / stomach / hyperplasia + systemic / pathology…", "result": 90, "unit": "mg/kg/day"},
      {"measurement": "LEL", "setting": "[7]; [15]", "result": 45, "unit": "mg/kg/day"},
      {"measurement": "NEL", "setting": "[7]; [15]", "result": "< 45", "unit": "mg/kg/day"},
      {"measurement": "LEL", "setting": "[8]; [16]", "result": 445, "unit": "mg/kg/day"},
      {"measurement": "LOAEL", "setting": "[8]; [16]", "result": "> 1230", "unit": "mg/kg/day"},
      {"measurement": "NEL", "setting": "[8]; [16]", "result": 240, "unit": "mg/kg/day"},
      {"measurement": "NOAEL", "setting": "[8]; [16]", "result": "≥ 1230", "unit": "mg/kg/day"},
      {"measurement": "LOAEL", "setting": "[8]; [17]", "result": 990, "unit": "mg/kg/day"},
      {"measurement": "NEL", "setting": "[8]; [17]", "result": 190, "unit": "mg/kg/day"},
      {"measurement": "NOAEL", "setting": "[8]; [17]", "result": 750, "unit": "mg/kg/day"},
      {"measurement": "LEL", "setting": "[8]; group: systemic, systemic / in life observation / water consumption / water consumption", "result": 345, "unit": "mg/kg/day"},
      {"measurement": "LOAEL", "setting": "[9]; [18]", "result": "> 500", "unit": "mg/kg/day"},
      {"measurement": "NEL", "setting": "[9]; [18]", "result": 125, "unit": "mg/kg/day"},
      {"measurement": "NOAEL", "setting": "[9]; [18]", "result": "≥ 500", "unit": "mg/kg/day"},
      {"measurement": "LEL", "setting": "[9]; systemic / hematology / methemoglobin / methemoglobin + systemic / in life observation / mortality / mortality + systemic / pathology gross…", "result": 250, "unit": "mg/kg/day"},
      {"measurement": "LOAEL", "setting": "[10]; [12]", "result": 30, "unit": "mg/kg/day"},
      {"measurement": "NOAEL", "setting": "[10]; [12]", "result": "< 30", "unit": "mg/kg/day"},
      {"measurement": "LEL", "setting": "[10]; [19]", "result": 30, "unit": "mg/kg/day"},
      {"measurement": "NEL", "setting": "[10]; [19]", "result": "< 30", "unit": "mg/kg/day"}
    ]}
  ]
}
